Test: xn = mol fraction of the nth substance listed

CCCCCCCC + CO
298.15 K, 101.33 kPa
Details | viscosity [mPa·s]
x1 = 0.0147 | 0.553
x2 = 0.0367 | 0.536
x2 = 0.0682 | 0.547
x2 = 0.0725 | 0.548
x2 = 0.0933 | 0.555
x2 = 0.1159 | 0.563
x2 = 0.9531 | 0.556
x2 = 0.9687 | 0.554

CCCCCO + CO
298.15 K, 101.33 kPa
Details | viscosity [mPa·s]
x2 = 0.1748 | 2.71
x2 = 0.2198 | 2.528
x2 = 0.327 | 2.143
x2 = 0.4302 | 1.813
x2 = 0.5186 | 1.57
x2 = 0.5951 | 1.372
x2 = 0.652 | 1.236
x2 = 0.7911 | 0.932
x2 = 0.8761 | 0.77

O=[N+]([O-])c1ccccc1 + CO
viscosity [mPa·s]
Details | 298.15 K | 303.15 K
101 kPa, x1 = 0.0148 | 0.5642 | –
101 kPa, x2 = 0.0719 | 1.698 | –
101 kPa, x2 = 0.2616 | 1.416 | –
101 kPa, x2 = 0.4788 | 1.161 | –
101 kPa, x2 = 0.5889 | 1.036 | –
101 kPa, x2 = 0.7539 | 0.8366 | –
101 kPa, x2 = 0.8593 | 0.7113 | –
101 kPa, x2 = 0.9296 | 0.6279 | –
101.33 kPa, x1 = 0.0281 | 0.5789 | 0.541
101.33 kPa, x1 = 0.0612 | 0.611 | 0.5673
101.33 kPa, x1 = 0.1003 | 0.6507 | 0.607
101.33 kPa, x1 = 0.1478 | 0.7156 | 0.6653
101.33 kPa, x1 = 0.2806 | 0.8769 | 0.81
101.33 kPa, x1 = 0.3909 | 1.006 | 0.9279
101.33 kPa, x1 = 0.5102 | 1.156 | 1.093
101.33 kPa, x1 = 0.5937 | – | 1.298
101.33 kPa, x1 = 0.8005 | 1.559 | 1.485
101.33 kPa, x1 = 0.8978 | 1.693 | 1.534

CCCCCO + COC(=O)OC
101.3 kPa
Details | viscosity [mPa·s]
293.15 K, x2 = 0.0482 | 3.367
293.15 K, x2 = 0.0991 | 2.836
293.15 K, x2 = 0.1941 | 2.11
293.15 K, x2 = 0.2974 | 1.605
293.15 K, x2 = 0.3939 | 1.304
293.15 K, x2 = 0.4993 | 1.092
293.15 K, x2 = 0.6 | 0.939
293.15 K, x2 = 0.7013 | 0.81
293.15 K, x2 = 0.8013 | 0.704
293.15 K, x2 = 0.8915 | 0.635
293.15 K, x2 = 0.9503 | 0.619
298.15 K, x2 = 0.0457 | 2.905
298.15 K, x2 = 0.1016 | 2.46
298.15 K, x2 = 0.1979 | 1.88
298.15 K, x2 = 0.3057 | 1.441
298.15 K, x2 = 0.4024 | 1.179
298.15 K, x2 = 0.503 | 0.988
298.15 K, x2 = 0.5793 | 0.878
298.15 K, x2 = 0.7034 | 0.739
298.15 K, x2 = 0.8003 | 0.655
298.15 K, x2 = 0.9018 | 0.597
298.15 K, x2 = 0.9494 | 0.586
303.15 K, x1 = 0.0192 | 0.542
303.15 K, x2 = 0.0539 | 2.488
303.15 K, x2 = 0.0906 | 2.228
303.15 K, x2 = 0.1979 | 1.66
303.15 K, x2 = 0.2613 | 1.416
303.15 K, x2 = 0.3902 | 1.066
303.15 K, x2 = 0.4928 | 0.89
303.15 K, x2 = 0.5918 | 0.759
303.15 K, x2 = 0.6923 | 0.661
303.15 K, x2 = 0.792 | 0.601
303.15 K, x2 = 0.8943 | 0.56
313.15 K, x2 = 0.0467 | 1.972
313.15 K, x2 = 0.1037 | 1.678
313.15 K, x2 = 0.2514 | 1.161
313.15 K, x2 = 0.3005 | 1.046
313.15 K, x2 = 0.3996 | 0.876
313.15 K, x2 = 0.5052 | 0.75
313.15 K, x2 = 0.6059 | 0.659
313.15 K, x2 = 0.7024 | 0.596
313.15 K, x2 = 0.8053 | 0.54
313.15 K, x2 = 0.9051 | 0.502
313.15 K, x2 = 0.9651 | 0.494

C=COCCCC + COC(=O)c1ccccc1
viscosity [mPa·s], 100 kPa
Details | x2 = 0.0898 | x2 = 0.1468 | x2 = 0.228 | x2 = 0.3145 | x2 = 0.4054 | x2 = 0.5056 | x2 = 0.6161 | x2 = 0.7316 | x2 = 0.8597
303.15 K | 0.437 | 0.497 | 0.571 | 0.657 | 0.761 | 0.891 | 1.038 | 1.205 | 1.422
308.15 K | 0.421 | 0.478 | 0.546 | – | – | – | 0.974 | 1.124 | 1.319
313.15 K | 0.4 | 0.452 | 0.515 | 0.585 | 0.671 | 0.778 | 0.897 | 1.034 | 1.205

CCCCCCCCCCCCCC + COC(=O)c1ccccc1
101 kPa
Details | viscosity [mPa·s]
298.15 K, x1 = 0.0359 | 1.787
298.15 K, x1 = 0.0603 | 1.763
298.15 K, x1 = 0.0869 | 1.742
298.15 K, x1 = 0.114 | 1.723
298.15 K, x1 = 0.1429 | 1.706
298.15 K, x1 = 0.1751 | 1.695
298.15 K, x1 = 0.2075 | 1.686
298.15 K, x1 = 0.2786 | 1.675
298.15 K, x1 = 0.3166 | 1.672
298.15 K, x1 = 0.3592 | 1.673
298.15 K, x1 = 0.4082 | 1.68
298.15 K, x1 = 0.4539 | 1.688
298.15 K, x1 = 0.5114 | 1.7
298.15 K, x1 = 0.5687 | 1.718
298.15 K, x1 = 0.6228 | 1.743
298.15 K, x1 = 0.6938 | 1.782
298.15 K, x1 = 0.7735 | 1.842
298.15 K, x1 = 0.8501 | 1.905
308.15 K, x1 = 0.0334 | 1.486
308.15 K, x1 = 0.0663 | 1.471
308.15 K, x1 = 0.0869 | 1.464
308.15 K, x1 = 0.1156 | 1.452
308.15 K, x1 = 0.1423 | 1.444
308.15 K, x1 = 0.1737 | 1.436
308.15 K, x1 = 0.2082 | 1.428
308.15 K, x1 = 0.2405 | 1.422
308.15 K, x1 = 0.2806 | 1.418
308.15 K, x1 = 0.3218 | 1.415
308.15 K, x1 = 0.3558 | 1.415
308.15 K, x1 = 0.4082 | 1.42
308.15 K, x1 = 0.4482 | 1.426
308.15 K, x1 = 0.5073 | 1.438
308.15 K, x1 = 0.5627 | 1.455
308.15 K, x1 = 0.62 | 1.478
308.15 K, x1 = 0.6846 | 1.508
308.15 K, x1 = 0.7661 | 1.553
308.15 K, x1 = 0.8624 | 1.613
318.15 K, x1 = 0.0194 | 1.263
318.15 K, x1 = 0.0462 | 1.25
318.15 K, x1 = 0.071 | 1.242
318.15 K, x1 = 0.1011 | 1.231
318.15 K, x1 = 0.1287 | 1.223
318.15 K, x1 = 0.1619 | 1.213
318.15 K, x1 = 0.193 | 1.205
318.15 K, x1 = 0.2311 | 1.198
318.15 K, x1 = 0.267 | 1.193
318.15 K, x1 = 0.3111 | 1.189
318.15 K, x1 = 0.3471 | 1.186
318.15 K, x1 = 0.3979 | 1.187
318.15 K, x1 = 0.4448 | 1.189
318.15 K, x1 = 0.5017 | 1.196
318.15 K, x1 = 0.5526 | 1.206
318.15 K, x1 = 0.6171 | 1.222
318.15 K, x1 = 0.6828 | 1.244
318.15 K, x1 = 0.7602 | 1.276
318.15 K, x1 = 0.8353 | 1.314

Source: the CheMixHub viscosity set
